# US8822697B2, “Paramagnetic polynuclear metal complex having high self-relaxation rate, preparation method thereof, and contrast medium containing same” (Kyungpook National University Industry-Academic Cooperation …, priority 2009, dated 2014)
# Tests used:
# [1] = Measurement of self-relaxation rate (relaxivity) R1 at 1.5 T (64 MHz); type: physicochemical; conditions: inverse recovery method
# Method: Thus, the self-relaxation rate is a factor that determines the efficiency of contrast agent in magnetic resonance imaging. T1 (relaxation time) measurements were carried out using an inverse recovery method with a variable […] (TI) at 1.5 T (64 MHz). The magnetic resonance (MR) images were acquired at 35 different T1 values ranging from 50 to 1750 msec. T1 was obtained from the non-linear least square fit of the signal intensity measured at each TI value. Relaxivity (R1) was then calculated as an inverse of relaxation time per mM.
# [2] = Stability, conditional stability and selectivity constants and pM value for gadolinium; type: physicochemical; conditions: for log K′sel: conditional stability constant (K′Sel); for log K′sel / {log KGdL(PH 7.4)} / [log Ksel(Gd/Ca)] / [log Ksel(Gd/Cu)] / [log Ksel(Gd/Zn)]: 25° C., μ = 0.10M (KCl); for pGd: pM = −log[Mn+] free at pH 7.4, [Mn+] total = 1 μmol/dm3, [L] total = 1.1 μmol/dm3; for [log Ksel(Gd/Ca)]: selectivity constant Gd over Ca; for [log Ksel(Gd/Cu)]: selectivity constant Gd over Cu; for [log Ksel(Gd/Zn)]: selectivity constant Gd over Zn; for [GdL]/[Gd][L]: stability constant, log K (25° C., μ = 0.10M (KCl))
# Description: (§1) The stability constant (KML) can be defined by the equation of KML=[ML]/[M][L], wherein M is Gd, Ca, Zn, Cu, and L indicates a ligand.
# (§2) The pM value can be defined by the equation of pM=−log [Mn^+] at pH=7.4.
# [M]=1.0 μmol/dm^3, [L]=1.1 μmol/dm^3
# [3] = Stability constant and pM value for calcium; type: physicochemical; conditions: for {log KCaL(PH 7.4)}: 25° C., μ = 0.10M (KCl); for pCa: pM = −log[Mn+] free at pH 7.4, [Mn+] total = 1 μmol/dm3, [L] total = 1.1 μmol/dm3; for [CaL]/[Ca][L]: stability constant, log K (25° C., μ = 0.10M (KCl))
# Description: as §1, §2
# [M]=1.0 μmol/dm^3, [L]=1.1 μmol/dm^3
# [4] = Stability constant and pM value for zinc; type: physicochemical; conditions: for {log KZnL(pH 7.4)}: 25° C., μ = 0.10M (KCl); for pZn: pM = −log[Mn+] free at pH 7.4, [Mn+] total = 1 μmol/dm3, [L] total = 1.1 μmol/dm3; for [ZnL]/[Zn][L]: stability constant, log K (25° C., μ = 0.10M (KCl))
# Description: as §1, §2
# [M]=1.0 μmol/dm^3, [L]=1.1 μmol/dm^3
# [5] = Stability constant and pM value for copper; type: physicochemical; conditions: for {log KCuL(pH 7.4)}: 25° C., μ = 0.10M (KCl); for pCu: pM = −log[Mn+] free at pH 7.4, [Mn+] total = 1 μmol/dm3, [L] total = 1.1 μmol/dm3; for [CuL]/[Cu][L]: stability constant, log K (25° C., μ = 0.10M (KCl))
# Description: as §1, §2
# [M]=1.0 μmol/dm^3, [L]=1.1 μmol/dm^3
# [6] = 20 MHz, 298 K; cited from earlier work
# [7] = Measurement of protonation equilibrium constants (KiH) of the ligands; conditions: for ΣpKa: 25° C., μ = 0.10M (KCl); for [H2L]/[HL][H] / [H3L]/[H2L][H] / [HL]/[L][H] / [H5L][H4L][H]: protonation equilibrium constant, log K (25° C., μ = 0.10M (KCl))
# Description: The protonation equilibrium constant (KiH) can be defined by the equation of KiH═[HiL]/[Hi-1L][H^+], wherein HiL is a protonated ligand (i=1, 2, . . . ).
R1 [1],log K′sel [2],{log KGdL(PH 7.4)} [2],pGd [2],[log Ksel(Gd/Ca)] [2],[log Ksel(Gd/Cu)] [2],[log Ksel(Gd/Zn)] [2],[GdL]/[Gd][L] [2],{log KCaL(PH 7.4)} [3],pCa [3],[CaL]/[Ca][L] [3],{log KZnL(pH 7.4)} [4],pZn [4],[ZnL]/[Zn][L] [4],{log KCuL(pH 7.4)} [5],pCu [5],[CuL]/[Cu][L] [5],[H2L]/[HL][H] [7],[H3L]/[H2L][H] [7],[HL]/[L][H] [7],Structure (SMILES),further results
5.9 ± 0.03 mM⁻¹ s⁻¹,,,,,,,,,,,,,,,,,,,,O.O=C([O-])CN(CCN(CC(=O)[O-])CC(=O)NC(Cc1cnc[nH]1)C(=O)O)CCN(CC(=O)[O-])CC(=O)NC(Cc1cnc[nH]1)C(=O)O.[Gd+3] (stereo not drawn) [[Gd(L1)H2O]],
3.3 ± 0.03 mM⁻¹ s⁻¹,9.03,14.84,13.88,9.68,3.82,4.81,16.85,5.11,4.19,7.17,10.02,9.06,12.04,11.06,10.05,13.03,4.38,3.31,9.37,"CNC(=O)CN(CCN(CCN(CC(=O)[O-])CC(=O)NC)CC(=O)[O-])CC(=O)[O-].[Gd+3] [Omniscan, [Gd(DTPA-bismethylamide)(H2O)], reference compound]",self-relaxation rate [6]: 4400 M⁻¹ s⁻¹; ΣpKa [7]: 17.06
,,,,,,,,,,,,,,,,,,,,"CNC[C@H](O)[C@@H](O)[C@H](O)[C@H](O)CO.CNC[C@H](O)[C@@H](O)[C@H](O)[C@H](O)CO.O=C([O-])CN(CCN(CC(=O)[O-])CC(=O)O)CCN(CC(=O)[O-])CC(=O)O.[Gd+3] [Magnevist, (N-Me-glucamine)2[Gd(DTPA)(H2O)]]",self-relaxation rate [6]: approximately 4.7 mM^−1s^−1
,19.59,17.03,16.03,12.73,8.66,8.66,19.59,4.30,3.30,6.86,8.37,7.37,10.93,8.42,7.42,10.98,7.59,6.52,9.52,"O=C(O)CN(CCN(CC(=O)O)CC(=O)NC(Cc1cnc[nH]1)C(=O)O)CCN(CC(=O)O)CC(=O)NC(Cc1cnc[nH]1)C(=O)O (stereo not drawn) [Complex L1, DTPA-bis-amide-histidine]",[H5L][H4L][H] [7]: 3.82

Structure (SMILES),R1 [1],log K′sel [2],{log KGdL(PH 7.4)} [2],pGd [2],[log Ksel(Gd/Ca)] [2],[log Ksel(Gd/Cu)] [2],[log Ksel(Gd/Zn)] [2],[GdL]/[Gd][L] [2],{log KCaL(PH 7.4)} [3],pCa [3],[CaL]/[Ca][L] [3],{log KZnL(pH 7.4)} [4],pZn [4],[ZnL]/[Zn][L] [4],{log KCuL(pH 7.4)} [5],pCu [5],[CuL]/[Cu][L] [5],[H2L]/[HL][H] [7],[H3L]/[H2L][H] [7],[HL]/[L][H] [7],further results
O.O=C([O-])CN(CCN(CC(=O)[O-])CC(=O)NC(CC(=O)O)C(=O)O)CCN(CC(=O)[O-])CC(=O)NC(CC(=O)O)C(=O)O.[Gd+3] (stereo not drawn) [[Gd(L2)H2O]],6.9 ± 0.04 mM⁻¹ s⁻¹,,,,,,,,,,,,,,,,,,,,
"O=C(O)CC(NC(=O)CN(CCN(CCN(CC(=O)O)CC(=O)NC(CC(=O)O)C(=O)O)CC(=O)O)CC(=O)O)C(=O)O (stereo not drawn) [Complex L2, DTPA-bis-amide-aspartic acid]",,10.74,14.93,13.98,10.92,6.34,6.45,21.12,4.01,30.1,10.18,8.48,7.48,14.67,8.59,7.59,14.78,9.42,5.92,11.55,ΣpKa [7]: 28.93; [H5L][H4L][H] [7]: 2.04
